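GI50 = concentration required for 50% inhibition of growth. TGI: total growth inhibition.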
Tests used:
Experiment in all cases: NCI tumour cell line growth inhibition, 384-well format
786-0 renal = system: 786-0 renal
A498 renal = system: A498 renal
A549 NSCLC = system: A549 NSCLC
ACHN renal = system: ACHN renal
BT-549 breast = system: BT-549 breast
CAKI-1 renal = system: CAKI-1 renal
CCRF-CEM leukemia = system: CCRF-CEM leukemia
COLO 205 colon = system: COLO 205 colon
DU-145 prostate = system: DU-145 prostate
EKVX NSCLC = system: EKVX NSCLC
HCC-2998 colon = system: HCC-2998 colon
HCT-116 colon = system: HCT-116 colon
HCT-15 colon = system: HCT-15 colon
HL-60(TB) leukemia = system: HL-60(TB) leukemia
HOP-62 NSCLC = system: HOP-62 NSCLC
HOP-92 NSCLC = system: HOP-92 NSCLC
HS 578T breast = system: HS 578T breast
HT29 colon = system: HT29 colon
IGROV1 ovarian = system: IGROV1 ovarian
KM12 colon = system: KM12 colon
LOX IMVI melanoma = system: LOX IMVI melanoma
M14 melanoma = system: M14 melanoma
MALME-3M melanoma = system: MALME-3M melanoma
MDA-MB-435 melanoma = system: MDA-MB-435 melanoma
MDA-MB-468 breast = system: MDA-MB-468 breast
MOLT-4 leukemia = system: MOLT-4 leukemia
NCI-H226 lung = system: NCI-H226 lung
NCI-H23 lung = system: NCI-H23 lung
NCI-H322M lung = system: NCI-H322M lung
NCI-H460 NSCLC = system: NCI-H460 NSCLC
NCI-H522 lung = system: NCI-H522 lung
NCI/ADR-RES ovarian = system: NCI/ADR-RES ovarian
OVCAR-3 ovarian = system: OVCAR-3 ovarian
OVCAR-4 ovarian = system: OVCAR-4 ovarian
OVCAR-5 ovarian = system: OVCAR-5 ovarian
OVCAR-8 ovarian = system: OVCAR-8 ovarian
PC-3 prostate = system: PC-3 prostate
RPMI-8226 leukemia = system: RPMI-8226 leukemia
RXF 393 renal = system: RXF 393 renal
SF-268 CNS = system: SF-268 CNS
SF-295 CNS = system: SF-295 CNS
SF-539 CNS = system: SF-539 CNS
SK-MEL-28 melanoma = system: SK-MEL-28 melanoma
SK-MEL-5 melanoma = system: SK-MEL-5 melanoma
SK-OV-3 ovarian = system: SK-OV-3 ovarian
SN12C renal = system: SN12C renal
SNB-19 CNS = system: SNB-19 CNS
SNB-75 CNS = system: SNB-75 CNS
SW-620 colon = system: SW-620 colon
T-47D breast = system: T-47D breast
TK-10 renal = system: TK-10 renal
U251 glioblastoma = system: U251 glioblastoma
UACC-257 melanoma = system: UACC-257 melanoma
UACC-62 melanoma = system: UACC-62 melanoma
UO-31 renal = system: UO-31 renal

Which GI50 (786-0 renal) does the source give for `Cc1cc(Cl)cc(OCCn2cc(F)cn2)c1-c1nc(N)nc2c1CN(C(=O)NCC(C)(F)F)C2` here?
Its GI50 is 59.3 nM.

And the TGI (786-0 renal)?
Its TGI is 5810 nM.

And the GI50 (A498 renal)?
The GI50 was 149 nM.

What about the TGI (A498 renal) of the same compound?
The TGI was greater than 100000 nM.

What about the GI50 (A549 NSCLC) of the same compound?
Its GI50 is 45.6 nM.

And the TGI (A549 NSCLC)?
The TGI was greater than 100000 nM.

What about the GI50 (ACHN renal) of the same compound?
The GI50 was 389 nM.

What about the TGI (ACHN renal) of the same compound?
The TGI was greater than 100000 nM.

What about the GI50 (BT-549 breast) of the same compound?
Its GI50 is 36.3 nM.

And the TGI (BT-549 breast)?
The TGI was 769 nM.

And the GI50 (CAKI-1 renal)?
Its GI50 is 163 nM.

And the TGI (CAKI-1 renal)?
The TGI was greater than 100000 nM.

And the GI50 (CCRF-CEM leukemia)?
Its GI50 is 29.1 nM.

What about the TGI (CCRF-CEM leukemia) of the same compound?
Its TGI is 94.1 nM.

And the GI50 (COLO 205 colon)?
Its GI50 is 30.6 nM.

And the TGI (COLO 205 colon)?
The TGI was 136 nM.

What about the GI50 (DU-145 prostate) of the same compound?
Its GI50 is 40.5 nM.

And the TGI (DU-145 prostate)?
Its TGI is 1750 nM.

What about the GI50 (EKVX NSCLC) of the same compound?
Its GI50 is 90.2 nM.

And the TGI (EKVX NSCLC)?
The TGI was 31100 nM.

And the GI50 (HCC-2998 colon)?
The GI50 was 21.5 nM.

What about the TGI (HCC-2998 colon) of the same compound?
Its TGI is 71.4 nM.

And the GI50 (HCT-116 colon)?
The GI50 was 68.5 nM.

And the TGI (HCT-116 colon)?
Its TGI is 18200 nM.

What about the GI50 (HCT-15 colon) of the same compound?
The GI50 was 339 nM.

And the TGI (HCT-15 colon)?
The TGI was greater than 100000 nM.

What about the GI50 (HL-60(TB) leukemia) of the same compound?
The GI50 was 32.5 nM.

What about the TGI (HL-60(TB) leukemia) of the same compound?
The TGI was 71.2 nM.

What about the GI50 (HOP-62 NSCLC) of the same compound?
The GI50 was 65.1 nM.

And the TGI (HOP-62 NSCLC)?
The TGI was greater than 100000 nM.

And the GI50 (HOP-92 NSCLC)?
The GI50 was 73.3 nM.

And the TGI (HOP-92 NSCLC)?
The TGI was 279 nM.

And the GI50 (HS 578T breast)?
Its GI50 is 46.8 nM.

What about the TGI (HS 578T breast) of the same compound?
The TGI was 302 nM.

What about the GI50 (HT29 colon) of the same compound?
Its GI50 is 35 nM.

And the TGI (HT29 colon)?
Its TGI is 16800 nM.

And the GI50 (IGROV1 ovarian)?
Its GI50 is 40.2 nM.

What about the TGI (IGROV1 ovarian) of the same compound?
The TGI was 443 nM.

What about the GI50 (KM12 colon) of the same compound?
Its GI50 is 37.3 nM.

And the TGI (KM12 colon)?
Its TGI is 802 nM.

And the GI50 (LOX IMVI melanoma)?
The GI50 was 35.7 nM.

What about the TGI (LOX IMVI melanoma) of the same compound?
The TGI was 129 nM.

What about the GI50 (M14 melanoma) of the same compound?
Its GI50 is 40.8 nM.

And the TGI (M14 melanoma)?
The TGI was greater than 100000 nM.

And the GI50 (MALME-3M melanoma)?
The GI50 was 30.7 nM.

And the TGI (MALME-3M melanoma)?
The TGI was 85.2 nM.

What about the GI50 (MDA-MB-435 melanoma) of the same compound?
Its GI50 is 83.1 nM.

And the TGI (MDA-MB-435 melanoma)?
The TGI was greater than 100000 nM.

What about the GI50 (MDA-MB-468 breast) of the same compound?
The GI50 was 34 nM.

What about the TGI (MDA-MB-468 breast) of the same compound?
Its TGI is 76 nM.

What about the GI50 (MOLT-4 leukemia) of the same compound?
Its GI50 is 17.5 nM.

And the TGI (MOLT-4 leukemia)?
Its TGI is 34.7 nM.

What about the GI50 (NCI-H226 lung) of the same compound?
The GI50 was 174 nM.

And the TGI (NCI-H226 lung)?
The TGI was 842 nM.

What about the GI50 (NCI-H23 lung) of the same compound?
The GI50 was 32.1 nM.

And the TGI (NCI-H23 lung)?
Its TGI is 95.4 nM.

And the GI50 (NCI-H322M lung)?
Its GI50 is 136 nM.

And the TGI (NCI-H322M lung)?
The TGI was greater than 100000 nM.

And the GI50 (NCI-H460 NSCLC)?
Its GI50 is 34.2 nM.

What about the TGI (NCI-H460 NSCLC) of the same compound?
Its TGI is 106 nM.

What about the GI50 (NCI-H522 lung) of the same compound?
Its GI50 is 23.9 nM.

What about the TGI (NCI-H522 lung) of the same compound?
The TGI was 45.7 nM.

And the GI50 (NCI/ADR-RES ovarian)?
Its GI50 is 5110 nM.

And the TGI (NCI/ADR-RES ovarian)?
The TGI was 63000 nM.

And the GI50 (OVCAR-3 ovarian)?
The GI50 was 41.6 nM.

What about the TGI (OVCAR-3 ovarian) of the same compound?
The TGI was 939 nM.

And the GI50 (OVCAR-4 ovarian)?
Its GI50 is greater than 100000 nM.

And the TGI (OVCAR-4 ovarian)?
The TGI was greater than 100000 nM.

What about the GI50 (OVCAR-5 ovarian) of the same compound?
The GI50 was 115 nM.

What about the TGI (OVCAR-5 ovarian) of the same compound?
The TGI was greater than 100000 nM.

And the GI50 (OVCAR-8 ovarian)?
Its GI50 is 43.1 nM.

What about the TGI (OVCAR-8 ovarian) of the same compound?
Its TGI is 181 nM.

What about the GI50 (PC-3 prostate) of the same compound?
Its GI50 is 86.7 nM.

What about the TGI (PC-3 prostate) of the same compound?
Its TGI is 533 nM.

And the GI50 (RPMI-8226 leukemia)?
The GI50 was 57 nM.

And the TGI (RPMI-8226 leukemia)?
The TGI was 305 nM.

What about the GI50 (RXF 393 renal) of the same compound?
The GI50 was 41.3 nM.

And the TGI (RXF 393 renal)?
Its TGI is 842 nM.

What about the GI50 (SF-268 CNS) of the same compound?
Its GI50 is 24 nM.

And the TGI (SF-268 CNS)?
Its TGI is 63.2 nM.

And the GI50 (SF-295 CNS)?
Its GI50 is 58.9 nM.

What about the TGI (SF-295 CNS) of the same compound?
The TGI was 230 nM.

And the GI50 (SF-539 CNS)?
Its GI50 is 26.1 nM.

What about the TGI (SF-539 CNS) of the same compound?
The TGI was 62.8 nM.

What about the GI50 (SK-MEL-28 melanoma) of the same compound?
Its GI50 is 71.5 nM.

And the TGI (SK-MEL-28 melanoma)?
The TGI was greater than 100000 nM.

And the GI50 (SK-MEL-5 melanoma)?
Its GI50 is 47.2 nM.

What about the TGI (SK-MEL-5 melanoma) of the same compound?
The TGI was greater than 100000 nM.

What about the GI50 (SK-OV-3 ovarian) of the same compound?
The GI50 was 121 nM.

What about the TGI (SK-OV-3 ovarian) of the same compound?
The TGI was greater than 100000 nM.

What about the GI50 (SN12C renal) of the same compound?
Its GI50 is 51.6 nM.

What about the TGI (SN12C renal) of the same compound?
The TGI was 316 nM.

What about the GI50 (SNB-19 CNS) of the same compound?
Its GI50 is 122 nM.

And the TGI (SNB-19 CNS)?
Its TGI is 24400 nM.

And the GI50 (SNB-75 CNS)?
The GI50 was 152 nM.

What about the TGI (SNB-75 CNS) of the same compound?
Its TGI is 664 nM.

And the GI50 (SW-620 colon)?
The GI50 was 38.5 nM.

What about the TGI (SW-620 colon) of the same compound?
The TGI was 268 nM.

And the GI50 (T-47D breast)?
Its GI50 is 43.8 nM.

What about the TGI (T-47D breast) of the same compound?
Its TGI is 307 nM.

What about the GI50 (TK-10 renal) of the same compound?
Its GI50 is 275 nM.

And the TGI (TK-10 renal)?
Its TGI is 12700 nM.

What about the GI50 (U251 glioblastoma) of the same compound?
The GI50 was 37.9 nM.

What about the TGI (U251 glioblastoma) of the same compound?
The TGI was 130 nM.

What about the GI50 (UACC-257 melanoma) of the same compound?
The GI50 was 394 nM.

And the TGI (UACC-257 melanoma)?
The TGI was greater than 100000 nM.

And the GI50 (UACC-62 melanoma)?
Its GI50 is 54.3 nM.

What about the TGI (UACC-62 melanoma) of the same compound?
Its TGI is 300 nM.

And the GI50 (UO-31 renal)?
Its GI50 is 394 nM.

What about the TGI (UO-31 renal) of the same compound?
Its TGI is 56100 nM.
